Values after ≈ are worked out from the molar mass of the structure shown. Read-outs that look alike come from different tables or passages of the source.
System: 100 A. baumannii strains (50 MDR, 50 non-MDR)
Assay: MIC broth microdilution at IHMA Europe, panel of 100 strains
Format: cell-based
Conditions: Acinetobacter baumannii, read-out: MIC

- MIC (A. baumannii IHMA 1769393, Lithuania 2018, Non-MDR): 0.25 µg/mL (≈ 0.427 µM)
- MIC (A. baumannii IHMA 1769782, Israel 2018, MDR): 4 µg/mL (≈ 6.83 µM)
- MIC (A. baumannii IHMA 1769910, Israel 2018, Non-MDR): 2 µg/mL (≈ 3.41 µM)
- MIC (A. baumannii IHMA 1790317, Czech Republic 2018, Non-MDR): 0.06 µg/mL (≈ 0.102 µM)
- MIC (A. baumannii IHMA 1790916, Romania 2018, Non-MDR): 0.12 µg/mL (≈ 0.205 µM)
- MIC (A. baumannii IHMA 1791877, Israel 2018, MDR): 2 µg/mL (≈ 3.41 µM)
- MIC (A. baumannii IHMA 1792961, Jordan 2018, MDR): 2 µg/mL (≈ 3.41 µM)
- MIC (A. baumannii IHMA 1795669, Tunisia 2018, Non-MDR): 0.06 µg/mL (≈ 0.102 µM)
- MIC (A. baumannii IHMA 1814276, Lebanon 2018, MDR): 4 µg/mL (≈ 6.83 µM)
- MIC (A. baumannii IHMA 1815198, Kuwait 2018, MDR): 4 µg/mL (≈ 6.83 µM)
- MIC (A. baumannii IHMA 1815856, Israel 2018, MDR): 2 µg/mL (≈ 3.41 µM)
- MIC (A. baumannii IHMA 1821468, South Africa 2018, Non-MDR): 0.25 µg/mL (≈ 0.427 µM)
- MIC (A. baumannii IHMA 1829500, Georgia 2018, Non-MDR): 0.5 µg/mL (≈ 0.854 µM)
- MIC (A. baumannii IHMA 1830924, United Kingdom 2018, Non-MDR): 0.5 µg/mL (≈ 0.854 µM)
- MIC (A. baumannii IHMA 1849819, Kuwait 2018, MDR): 4 µg/mL (≈ 6.83 µM)
- MIC (A. baumannii IHMA 1849829, Kuwait 2018, Non-MDR): 0.25 µg/mL (≈ 0.427 µM)
- MIC (A. baumannii IHMA 1857118, Slovenia 2018, Non-MDR): 0.25 µg/mL (≈ 0.427 µM)
- MIC (A. baumannii IHMA 1863631, France 2018, Non-MDR): 0.25 µg/mL (≈ 0.427 µM)
- MIC (A. baumannii IHMA 1870054, United States 2018, Non-MDR): 0.12 µg/mL (≈ 0.205 µM)
- MIC (A. baumannii IHMA 1884428, Italy 2018, Non-MDR): 0.25 µg/mL (≈ 0.427 µM)
- MIC (A. baumannii IHMA 1884990, Germany 2018, Non-MDR): 0.12 µg/mL (≈ 0.205 µM)
- MIC (A. baumannii IHMA 1900538, Turkey 2018, Non-MDR): 0.25 µg/mL (≈ 0.427 µM)
- MIC (A. baumannii IHMA 1913773, Kenya 2018, Non-MDR): 0.25 µg/mL (≈ 0.427 µM)
- MIC (A. baumannii IHMA 1926285, Qatar 2018, Non-MDR): 0.12 µg/mL (≈ 0.205 µM)
- MIC (A. baumannii IHMA 1926288, Qatar 2018, MDR): 4 µg/mL (≈ 6.83 µM)
- MIC (A. baumannii IHMA 1957343, Portugal 2019, Non-MDR): 0.12 µg/mL (≈ 0.205 µM)
- MIC (A. baumannii IHMA 1963732, Turkey 2019, MDR): 4 µg/mL (≈ 6.83 µM)
- MIC (A. baumannii IHMA 1967860, Spain 2019, Non-MDR): 4 µg/mL (≈ 6.83 µM)
- MIC (A. baumannii IHMA 1971673, Latvia 2019, MDR): 2 µg/mL (≈ 3.41 µM)
- MIC (A. baumannii IHMA 1975075, Israel 2019, Non-MDR): 0.5 µg/mL (≈ 0.854 µM)
- MIC (A. baumannii IHMA 1977077, Kuwait 2019, Non-MDR): 0.5 µg/mL (≈ 0.854 µM)
- MIC (A. baumannii IHMA 1983151, Greece 2019, MDR): 2 µg/mL (≈ 3.41 µM)
- MIC (A. baumannii IHMA 1984665, Lithuania 2019, MDR): 4 µg/mL (≈ 6.83 µM)
- MIC (A. baumannii IHMA 1986678, Turkey 2019, Non-MDR): 0.5 µg/mL (≈ 0.854 µM)
- MIC (A. baumannii IHMA 1986738, Turkey 2019, MDR): 4 µg/mL (≈ 6.83 µM)
- MIC (A. baumannii IHMA 1987162, Croatia 2019, MDR): 2 µg/mL (≈ 3.41 µM)
- MIC (A. baumannii IHMA 1993615, Turkey 2019, MDR): 0.5 µg/mL (≈ 0.854 µM)
- MIC (A. baumannii IHMA 1994284, Italy 2019, MDR): 1 µg/mL (≈ 1.71 µM)
- MIC (A. baumannii IHMA 1995161, Czech Republic 2019, Non-MDR): 0.12 µg/mL (≈ 0.205 µM)
- MIC (A. baumannii IHMA 1997936, Morocco 2019, Non-MDR): 0.25 µg/mL (≈ 0.427 µM)
- MIC (A. baumannii IHMA 1999178, Belgium 2019, Non-MDR): 0.25 µg/mL (≈ 0.427 µM)
- MIC (A. baumannii IHMA 2003279, Turkey 2019, MDR): 2 µg/mL (≈ 3.41 µM)
- MIC (A. baumannii IHMA 2014367, Jordan 2019, Non-MDR): 0.12 µg/mL (≈ 0.205 µM)
- MIC (A. baumannii IHMA 2014931, South Africa 2019, Non-MDR): 0.25 µg/mL (≈ 0.427 µM)
- MIC (A. baumannii IHMA 2019315, Romania 2019, Non-MDR): 0.12 µg/mL (≈ 0.205 µM)
- MIC (A. baumannii IHMA 2020360, Croatia 2019, MDR): 4 µg/mL (≈ 6.83 µM)
- MIC (A. baumannii IHMA 2031511, Greece 2019, Non-MDR): 0.12 µg/mL (≈ 0.205 µM)
- MIC (A. baumannii IHMA 2031524, Greece 2019, MDR): 1 µg/mL (≈ 1.71 µM)
- MIC (A. baumannii IHMA 2034657, Tunisia 2019, Non-MDR): 0.25 µg/mL (≈ 0.427 µM)
- MIC (A. baumannii IHMA 2035089, Serbia 2019, MDR): 4 µg/mL (≈ 6.83 µM)
- MIC (A. baumannii IHMA 2035134, Serbia 2019, Non-MDR): 0.12 µg/mL (≈ 0.205 µM)
- MIC (A. baumannii IHMA 2038976, Hungary 2019, MDR): 2 µg/mL (≈ 3.41 µM)
- MIC (A. baumannii IHMA 2051503, Serbia 2019, MDR): 2 µg/mL (≈ 3.41 µM)
- MIC (A. baumannii IHMA 2058329, Slovenia 2019, Non-MDR): 0.25 µg/mL (≈ 0.427 µM)
- MIC (A. baumannii IHMA 2065587, France 2019, Non-MDR): 0.25 µg/mL (≈ 0.427 µM)
- MIC (A. baumannii IHMA 2099294, United Kingdom 2019, Non-MDR): 0.5 µg/mL (≈ 0.854 µM)
- MIC (A. baumannii IHMA 2129256, Qatar 2019, Non-MDR): 0.12 µg/mL (≈ 0.205 µM)
Compound: CN(C)c1cc(NC(=O)CNC(C)(C)C)c(O)c2c1C[C@H]1C[C@H]3[C@H](N(C)C)C(O)=C(C(N)=O)C(=O)[C@@]3(O)C(O)=C1C2=O [Tigecycline, tigecycline]

From article PMC10041525, “New Dual Inhibitors of Bacterial Topoisomerases with Broad-Spectrum Antibacterial Activity and In Vivo Efficacy against Vancomycin-Intermediate Staphylococcus aureus” (Journal of Medicinal Chemistry, 2023)
